In US4249005A, “Alkoxymethyl and benzyloxymethyl phenobarbital compounds” (priority 1969, dated 1981):

Legend:
[1] = cited from earlier work
Acute oral toxicity = assay: Acute oral toxicity; design: species or system adult albino male mice (Charles River strain); conditions: mouse, in vivo
Experimental: (§1) All tests, with the exceptions noted, were conducted on adult albino male mice (Charles River strain); the dosage consisted of the active agent suspended in 10% aqueous acacia and was administered orally unless otherwise indicated.
(§2) Acute oral toxicity and acute intraperitoneal toxicity were determined in the conventional manner. The results were expressed as LD50, the dose required to produce death in 50% of the animals treated, determined graphically, with the 95% limits shown in parentheses.

[2] = Anticonvulsant effectiveness against Metrazol; type: in vivo, adult albino male mice (Charles River strain); conditions: oral, mice; for ED50: Mus musculus, Metrazol 106.25 mg/kg subcutaneously, limits in parentheses
Experimental: as §1
(§3) Anticonvulsant effectiveness was determined against a convulsive dose of Metrazol (106.25 mg/kg) injected subcutaneously; the criterior for effectiveness was failure to show clonic convulsive seizures. Anticonvulsant activity was determined against a lethal dose of strychnine sulfate (1.5 mg/kg) injected subcutaneously; the criterion was failure to die, even though seizures appeared.

[3] = Hypnotic activity (loss of the righting reflex); type: in vivo, adult albino male mice (Charles River strain); conditions: any dosage less than a lethal dose for compounds of the invention
Experimental: as §1

[4] = Anticonvulsant effectiveness against maximal electroshock; type: in vivo, adult albino male mice (Charles River strain); conditions: for ED50: Mus musculus, at time of peak effect, limits in parentheses; for ED50 / Time of peak activity: oral, mice
Experimental: as §1
(§4) Anticonvulsant effectiveness of each agent against maximal electroshock was determined at the time of peak effect. The time of peak anticonvulsant activity was determined by administering dosages of various sizes to a group of animals and administering a maximal electroshock to the animals at intervals thereafter by supply 60 ma. current through a corneal electrode for 0.2 second. […] The time of peak effect thus determined was used for all subsequent tests of anticonvulsant activity on the same active agent.
The duration of the anticonvulsant effect against maximal electroshock was compared with that of phenobarbital sodium at a dosage level of 0.1 millimole/kg of each.

[5] = Acute intraperitoneal toxicity; design: species or system adult albino male mice (Charles River strain); conditions: mouse, in vivo, ip, mice, 95% limits in parentheses
Experimental: as §1, §2

[6] = Neurological deficit (Swinyard et al. plus rotorod); design: species or system adult albino male mice (Charles River strain); conditions: mouse, in vivo; oral, mice; 95% limits in parentheses
Experimental: as §1
The dosage required to produce a neurological deficit was determined by the method of Swinyard et al., J. Pharmacol. Exptl. Therap. 106, 319 (1952) except that one additional test was employed: the ability of the animal to remain for at least one minute on a "rotorod", a horizontal rod rotated at 6 r.p.m. The results were expressed as TD50, the dose required to produce the effect, determined graphically, with 95% limits.

[7] = Anticonvulsant activity against maximal electroshock in the rat; type: in vivo; conditions: rat (Sprague Dawley Strain); limits in parentheses
Experimental: as §4

[8] = Anticonvulsant activity against strychnine; type: in vivo, adult albino male mice (Charles River strain); conditions: Mus musculus, po, read-out: Strychnine, ED50
Experimental: as §1, §3

[9] = reported in Doran, Medicinal Chemistry, 1959; cited from earlier work
[10] = oral, mice, 95% limits in parentheses, read-out: LD50 (oral)
[11] = 0.1 millimole/kg, maximal electroshock

In the case of O=C1NC(=O)C(c2ccccc2)(c2ccccc2)N1 [diphenylhydantoin], the hypnotic activity ([1]; known property) is given as “not hypnotic” and the undesirable side effects ([1]; known property) is given as “hypertrophic gingivitis, megaloblastic anemia, toxic psychoses, and hirsutism”.

In the case of CCCCCCCCCCCCOCN1C(=O)N(COCCCCCCCCCCCC)C(=O)C(CC)(CC)C1=O [Example 10, 1,3-di-n-dodecyloxymethyl-5,5-diethyl barbituric acid], the LD50 (Acute oral toxicity; [10]) is reported as > 1000 mg/kg and the ED50 [2] is reported as ~200 mg/kg.

In the case of CCC1(c2ccccc2)C(=O)NC(=O)NC1=O [Phenobarbital, phenobarbital], the “Hypnotic activity (loss of the righting reflex, onset of sleep)” value [3] is given as “did exhibit hypnotic activity”, the hypnotic activity ([1]; known property) is given as “exhibits hypnotic activity as well as anticonvulsant activity” and the anticonvulsant usefulness ([1]; long known, treatment of epilepsy) is given as “useful as anticonvulsant agents in warm-blooded animals”.

In the case of COCN1C(=O)NC(c2ccccc2)(c2ccccc2)C1=O [Example 2, 3-methoxymethyl-5,5-diphenylhydantoin], the LD50 (Acute oral toxicity; route not stated with the value (oral unless otherwise indicated), read-out: LD50) is reported as ~500 mg/kg, the ED50 [4] is reported as < 25 mg/kg and the “duration of anticonvulsant activity (maximal electroshock)” value ([4]; after ingestion) is reported as “more than 2 hours”. The “onset of anticonvulsant activity (maximal electroshock)” value ([4]; after ingestion) was “less than 0.5 hour”.

Work on CCC1(c2ccccc2)C(=O)N(COC)C(=O)N(COC)C1=O [Example 1, 1,3-dimethoxymethyl-5-ethyl-5-phenyl barbituric acid] yielded an LD50 (Acute oral toxicity; [10]) of 470 mg/kg, an LD50 [5] of 490 mg/kg and a TD50 [6] of 47 mg/kg. The “duration of protection against maximal electroshock at about the same level” value ([4]; 0.1 millimole/kg) was “more than eight”, the ED50 [4] was 13.5 mg/kg and the “Time of peak activity” value ([4]; maximal electroshock) was 2 h. The “change in the ED50 to protect against maximal electroshock on repeated dosage” value ([4]; repeated daily dosage of the same animals for four days) was “no significant change”, the ED50 [7] was 6.6 mg/kg and the ED50 [2] was 47 mg/kg. The ED50 [8] was 200 mg/kg and the hypnotic effect [9] was “without effect”.

In the case of C=CCC1(C(C)CCC)C(=O)N(COC)C(=O)N(COC)C1=O (stereo not drawn) [Example 11, 1,3-dimethoxymethyl-5-allyl-5-(2-pentyl) barbituric acid], the LD50 (Acute oral toxicity; [10]) is reported as > 500 mg/kg and the ED50 [2] is reported as ~100 mg/kg.

With CCCCOCN1C(=O)NC(c2ccccc2)(c2ccccc2)C1=O [Example 6, 3-(n)-butoxymethyl-5,5-diphenylhydantoin] the LD50 (Acute oral toxicity; [10]) was > 500 mg/kg and the ED50 [4] was < 25 mg/kg.

In the case of CCCCCCCCCCCCOCN1C(=O)N(COCCCCCCCCCCCC)C(=O)C(CC)(c2ccccc2)C1=O [Example 8, 1,3-dilauryloxymethyl-5-ethyl-5-phenyl barbituric acid], the LD50 (Acute oral toxicity; [10]) is reported as > 500 mg/kg, the ED50 [4] is reported as ~50 mg/kg and the “Time of peak activity” value ([4]; maximal electroshock) is reported as 2 h.

In the case of CCC1(CC)C(=O)N(COC)C(=O)N(COC)C1=O [Example 9, 1,3-dimethoxymethyl-5,5-diethyl-barbituric acid], the LD50 (Acute oral toxicity; [10]) is reported as > 1000 mg/kg, the LD50 [5] is reported as ~1000 mg/kg and the ED50 [2] is reported as 7 mg/kg. The “Time of peak activity” value ([2]; reported with Metrazol result, test not stated) was 1 h.

With CCCCOCN1C(=O)N(COCCCC)C(=O)C(CC)(c2ccccc2)C1=O [Example 4, 1,3-di-(n)-butoxymethyl-5-ethyl-5-phenyl barbituric acid] the LD50 (Acute oral toxicity; [10]) was > 500 mg/kg and the ED50 [4] was < 100 mg/kg.

In the case of CCOCN1C(=O)N(COCC)C(=O)C(CC)(c2ccccc2)C1=O [Example 5, 1,3-diethoxymethyl-5-ethyl-5-phenyl barbituric acid], the ED50 [4] is reported as < 25 mg/kg and the “Time of peak activity” value ([4]; maximal electroshock) is reported as 11/2.

For C=CCC1(C(C)CCC)C(=O)N(COCc2ccccc2)C(=O)N(COCc2ccccc2)C1=O (stereo not drawn) [Example 12, 1,3-dibenzyloxymethyl-5-allyl-5-(2-pentyl) barbituric acid], the LD50 (Acute oral toxicity; [10]) was > 1000 mg/kg and the ED50 [2] was ~200 mg/kg.

For CCC1(c2ccccc2)C(=O)NC(=O)NC1=O [phenobarbital sodium, reference compound], the “time at which protection began to decrease” value [4, 11] was “four”, the “time at which protection was nearly gone” value [4, 11] was “eight” and the “onset of protection against maximal electroshock” value ([4]; 0.1 millimole/kg, comparator) was “less than 0.5 hour”.
